# Laboratory results: US20070015733A1, “Aryl Phosphate Derivatives of d4T having Activity Against Resistant HIV Strains” (Parker Hughes Institute, priority 1998, published 2007)
# Where two headings read alike, the source gives them in different places.
# Experiments:
# [1] = system: zidovudine-resistant primary clinical HIV-1 isolates; experiment: p24 drug susceptibility assay, NRTI-/zidovudine-resistant primary clinical HIV-1 isolates in PBMC; format: cell-based; conditions: Human immunodeficiency virus 1, PBMC
# Procedure: Viruses. […] The HIV-1 strains HTLVIIIB (wildtype RT, NRTI-sensitive, NNRTI-sensitive), A17 (Y181 C mutant, NNRTI-resistant), A17-variant (Y181C+K103N mutant, NNRTI-resistant), and RT-MDR (M41 L, V106N, T215Y; NRTI-resistant, NNRTI-resistant) were also obtained from the AIDS Research and Reference Reagent Program, NIAID.
# (§1) Antiviral susceptibility assays. Phenotypic drug susceptibility studies of HIV-1 isolates and strains were performed by measuring the production of the p24 gag protein in peripheral blood mononuclear cells (PBMC) from seronegative healthy volunteers in the presence of increasing concentrations of the anti-HIV agent using the quantitative Coulter HIV-1 p24 antigen ezyme immunoassay (EIA) and HIV-1 p24 Antigen Kinetic Standard (Beckman Coulter), as previously described (Uckun, 1998, Antimicrobial Agents and Chemotherapy 37(4): 835-38). Informed consent was obtained from the blood donors according to DHHS guidelines using consent forms approved by the Institutional Review Board. In brief, PBMC were cultured for 72 h in RPMI 1640 medium (Gibco) supplemented with 20% (vol/vol) heat-inactivated fetal bovine serum, 5% human interleukin-2 (Zeptometrix), 2 mM L-glutamine, 25 mM HEPES, 2 g/L NaHCO3, 100 U/ml penicillin/streptomycin (Gibco), 50 μg/ml gentamicin (Gibco), and 5 μg/ml phytohemagglutinin-P (PHA-P) (Sigma) for 24-72 hours prior to exposure to HIV at a multiplicity of infection of 0.001-0.1 during a 1-h adsorbtion period at 37±1° C. in a humidified 5-7% CO2 atmosphere. Subsequently, cells were cultured in 96-well microtiter plates (100 μl/well; 2×10^6 cells/ml, triplicate wells) in the presence of the anti-HIV agents at 6-7 different concentrations ranging from 0.0001 μM to 100 μM, and 25 μL aliquots of culture supernatants were removed from the wells on day 6 after infection for p24 EIA, as previously described (Uckun, 1998, Antimicrobial Agents and Chemotherapy, 37(4):835-38). Controls included uninfected and untreated cells (background control) and infected but untreated (virus control) cells. The p24 EIA utilizes a murine monoclonal antibody to HIV core protein used to coat microwell strips to which the antigen present in the test culture supernatant samples binds. Percent inhibition of viral replication was calculated by comparing the p24 values from the test substance-treated infected cells with p24 values from untreated infected cells (i.e., virus controls). The IC50 values were determined using the Statview statistics program (SAS Institute, Inc.). In parallel, the effects of various treatments on cell viability were also examined as previously described (Uckun, 1998, Antimicrobial Agents and Chemotherapy, 42:383-388). In brief, noninfected PBMC were treated with each compound for 5 days under identical experimental conditions. A microculture tetrazolium assay (MTA) was performed to quantitate cellular proliferation (Uckun, 1998, Antimicrobial Agents and Chemotherapy, 42:383-388).
# (§2) Phenotypic drug susceptibility studies of HIV-1 isolates and strains were performed by measuring the production of the p24 gag protein in peripheral blood mononuclear cells (PBMC) from seronegative healthy volunteers in the presence of increasing concentrations of the anti-HIV agent using the quantitative Coulter HIV-1 p24 antigen enzyme immunoassay (EIA) and HIV-1 p24 Antigen Kinetic Standard (Beckman Coulter), as previously described. StatView was used in the calculation of the IC50 values from each set of triplicate wells using the linearized form of an exponential equation (lnY=lnb0+b1X; where Y=% inhibition, X=drug concentration). The inhibition constants were log10 transformed to homogenize the variances within each group. […] P-values below 0.05 were deemed significant (JMP Software, SAS).
# [2] = system: Zidovudine-Sensitive Primary Clinical HIV-1 Isolates; experiment: p24 drug susceptibility assay, zidovudine-sensitive primary clinical HIV-1 isolates in PBMC; format: cell-based; conditions: Human immunodeficiency virus 1, PBMC
# Procedure: as §1, §2
# [3] = Pharmacokinetics after intravenous or oral administration; format: in vivo, mice
# [4] = system: NRTI-resistant recombinant HIV-1 isolates; experiment: p24 assay, multi-NRTI-resistant recombinant HIV-1 clones; format: cell-based
# [5] = system: HIV-2 (Strain: CBL-20); experiment: Inhibition of HIV-2 replication in PBMNC (RT activity); format: cell-based; conditions: Human immunodeficiency virus 2, read-out: HIV-2 IC50 [RT]
# Procedure: (P-AZT) and with AZT. The incubation and analysis methods used were as described above for Example 3.
# Cellular Assays of Anti-HIV Activity and Cytotoxicity. […] Percent viral inhibition was calculated by comparing the RT activity values from the test substance-treated infected cells with RT values from untreated infected cells (i.e., virus controls).
smiles,measurement,setting,value
"COC(=O)C(C)NP(=O)(OC[C@@H]1C=C[C@H](n2cc(C)c(=O)[nH]c2=O)O1)Oc1ccc(Br)cc1 (some centres unmarked) [Compound 1c, d4T-5′-[p-bromo-phenylmethoxyalaninyl phosphate]]",IC50,"[1]; primary isolate X165-8 (K103N, Y181C), Table 14",13 nM
same,IC50,"[1]; primary isolate X165-9 (K103N), Table 14",2 nM
same,IC50,"[1]; primary isolate Y270-7 (Y188L), Table 14",9 nM
same,IC50,"[1]; read-out: IC50 (nM), Mean ± SE, All (n = 25) NRTI-resistant HIV-1 isolates, p24",13.4 ± 3.2 nM
same,IC50,"[1]; read-out: IC50 (nM), Mean ± SE, Group A (n = 19) NRTI-resistant clinical isolates",8.9 ± 2.9 nM
same,IC50,"[1]; read-out: IC50 (nM), median, All (n = 25)",6 nM
same,IC50,"[1]; read-out: IC50 (nM), median, Group A (n = 19)",3.2 nM
same,IC50,"[1]; read-out: IC50 (nM), range, All (n = 25)",0.2 to 57.9 nM
same,IC50,"[1]; read-out: IC50 (nM), range, Group A (n = 19)",0.2 to 42 nM
same,IC50,"[1]; read-out: IC50, μM, Mean ± SE, mean over 20 zidovudine-resistant primary clinical isolates",8.7 ± 2.7 nM
same,IC50,"[1]; read-out: IC50, μM, Mean ± SE, mean over the NNRTI-resistant primary isolates of Table 14",11.2 ± 6.5 nM
same,IC50,"[1]; read-out: IC50 range, range over 20 zidovudine-resistant primary clinical isolates",1 to 42 nM
same,IC50,"[1]; read-out: average IC50 value, mean over 20 zidovudine-resistant primary clinical isolates",8.7 ± 2.8 nM
same,IC50,"[1]; read-out: average IC50 value, mean over primary clinical isolates with NNRTI binding pocket mutations",11.2 ± 6.5 nM
same,IC50,"[1]; read-out: mean IC50 value, NRTI-resistant isolates with 5 thymidine analog mutations (Group 1 in Table 19)",10.7 ± 5.1 nM
same,IC50,"[1]; read-out: mean IC50 value, isolates with M184V plus multiple thymidine analog mutations (Group 2 in Table 19)",17.2 ± 13 nM
same,IC50,"[2]; primary isolate RW/92/8 (V179I), Table 14",0.0008 µM
same,IC50,"[2]; read-out: IC50, μM (p24), Mean ± SE, mean over 10 zidovudine-sensitive clinical isolates",0.002 ± 0.001 µM
same,IC50,"[2]; read-out: IC50, μM (p24), isolate 92BR003 (B/B, Brazil), PBMC",0.0006 µM
same,IC50,"[2]; read-out: IC50, μM (p24), isolate 92BR025 (C/C, Brazil), PBMC",0.001 µM
same,IC50,"[2]; read-out: IC50, μM (p24), isolate 92RW008 (—/A, Rawanda), PBMC",0.0008 µM
same,IC50,"[2]; read-out: IC50, μM (p24), isolate 92RW016 (subtype A/A, Rawanda), PBMC",0.003 µM
same,IC50,"[2]; read-out: IC50, μM (p24), isolate 93BR019 (—/BF, Brazil), PBMC",0.0008 µM
same,IC50,"[2]; read-out: IC50, μM (p24), isolate 93BR020 (F/F, Brazil), PBMC",0.007 µM
same,IC50,"[2]; read-out: IC50, μM (p24), isolate 93BR029 (F/B, Brazil), PBMC",0.0008 µM
same,IC50,"[2]; read-out: IC50, μM (p24), isolate 93IN101 (—/C, India), PBMC",0.0005 µM
same,IC50,"[2]; read-out: IC50, μM (p24), isolate HIV-1G3 (—/G, Nigeria), PBMC",0.0005 µM
same,IC50,"[2]; read-out: IC50, μM (p24), isolate HIV-1JV1083 (—/G, Nigeria), PBMC",0.001 µM
same,parent compound in blood,[3]; after oral administration,No parent d4T-5′-[p-bromophenyl methoxyalaninyl phosphate] was detectable
same,elimination half-life (t1/2) of the administered substance,[3]; intravenous administration,3.5 min
same,IC50,"[4]; Human immunodeficiency virus 1, read-out: IC50 (nM), Mean ± SE, Group B (n = 6) recombinant clones",27.6 ± 7.9 nM
same,IC50,"[4]; Human immunodeficiency virus 1, read-out: IC50 (nM), median, Group B (n = 6)",22.5 nM
same,IC50,"[4]; Human immunodeficiency virus 1, read-out: IC50 (nM), p24, recombinant clone 1617-1 (151 complex)",19.9 nM
same,IC50,"[4]; Human immunodeficiency virus 1, read-out: IC50 (nM), p24, recombinant clone 4755-5",6 nM
same,IC50,"[4]; Human immunodeficiency virus 1, read-out: IC50 (nM), p24, recombinant clone 7295-1",43 nM
same,IC50,"[4]; Human immunodeficiency virus 1, read-out: IC50 (nM), p24, recombinant clone 7324-1",13.7 nM
same,IC50,"[4]; Human immunodeficiency virus 1, read-out: IC50 (nM), p24, recombinant clone 52252-1 in Table 18, 56252-1 in Tables 19 and 20 (K65R, 151 complex)",25 nM
same,IC50,"[4]; Human immunodeficiency virus 1, read-out: IC50 (nM), p24, recombinant clone printed 52534-1 in Table 18, 52534-2 in Tables 19 and 20 (69 insertion complex)",57.9 nM
same,IC50,"[4]; Human immunodeficiency virus 1, read-out: IC50 (nM), range, Group B (n = 6)",6 to 57.9 nM
same,IC50,"[4]; Human immunodeficiency virus 1, read-out: mean IC50 value, recombinant clones with 151 complex or 69 insertion complex (Group 3+Group 4)",34.3 ± 11.9 nM
same,IC50,[5],400 nM
